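Values below derive from 48-hour exposures of cells grown in 96-well plates, with endpoints linearly interpolated between the two concentrations bracketing the appropriate inhibition level. The concentration for 50% growth inhibition is given as GI50. Definition used: TGI = concentration required for complete inhibition of growth.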 *1 amine or outer side, *2 acyl side, *3 side chain or, on linkers, in order; H or OH if unused. Where a SMILES comes first, the peptide text is derived from it. Bridges are numbered along the chain shown (N, C = ends). Roman numbers before positions name the chains, in order. [ ]: non-standard residue; d: D form. Actinocin(9to1) = Cc1c2oc3c(C)ccc(C(=O)[*:1])c3nc-2c(C(=O)[*:2])c(N)c1=O; Hyp = O=C(O)[CH]1C[CH](O)CN1; NMeV = CN[CH](C(=O)O)C(C)C; Sar = CNCC(=O)O
Experiments:
Experiment in all cases: NCI tumour cell line growth inhibition, 48 h
[1] = system: HT29 colon
[2] = system: NCI-H226 lung
[3] = system: MCF7 breast
[4] = system: HS 578T breast
[5] = system: A549 NSCLC
[6] = system: SR leukemia
[7] = system: ACHN renal
[8] = system: U251 CNS
[9] = system: HCT-116 colon
[10] = system: DU-145 prostate

Compound	TGI [1]	TGI [2]	TGI [3]	TGI [4]	TGI [5]	TGI [6]	TGI [7]	TGI [8]	TGI [9]	TGI [10]	GI50 [1]	GI50 [2]	GI50 [3]	GI50 [4]	GI50 [5]	GI50 [6]	GI50 [7]	GI50 [8]	GI50 [9]	GI50 [10]
COC(=O)C(Cc1c[nH]c2ccccc12)NP(=O)(O)OCC1OC(n2cc(Br)c(=O)[nH]c2=O)CC1O (stereo not given)	> 100 µM	> 100 µM	> 100 µM	> 100 µM	> 100 µM	> 100 µM	> 100 µM	> 100 µM	> 100 µM	> 100 µM										
CC(=O)C(C(C)=O)[C@@H]1OC(C)(C)O[C@@H]1[C@H]1COC(C)(C)O1	> 100 µM	> 100 µM	> 100 µM	> 100 µM	> 100 µM	> 100 µM	> 100 µM	> 100 µM	> 100 µM	> 100 µM										
Nn1c(=O)[nH]c2ncn(Cc3ccccc3)c2c1=O	> 100 µM	> 100 µM	> 100 µM	> 100 µM	> 100 µM	> 100 µM	> 100 µM	> 100 µM	> 100 µM	> 100 µM										
Cn1c2ccccc2c2cc(N3CCCC3)c3c(c21)C(=O)N(c1ccccc1)C3=O	> 100 µM	> 100 µM	> 100 µM	> 100 µM	> 100 µM	> 100 µM	> 100 µM	> 100 µM	> 100 µM	> 100 µM										
CCCCc1ccc(Nc2nc(Cl)c3c(ncn3C3CC(Oc4ccc(C)cc4)C(COc4ccc(C)cc4)O3)n2)cc1 (stereo not given)	> 100 µM	> 100 µM	> 100 µM	> 100 µM	> 100 µM	> 100 µM	> 100 µM	> 100 µM	> 100 µM	> 100 µM										
O=[N+]([O-])c1cc2ccc(N(CCO)CCO)nc2nc1N(CCO)CCO	> 100 µM	> 100 µM	> 100 µM	> 100 µM	> 100 µM	> 100 µM	> 100 µM	> 100 µM	> 100 µM	> 100 µM										
C=CCOC(OCC=C)/C(Br)=C/C	62.3 µM	> 100 µM	> 100 µM	72.2 µM	> 100 µM	> 100 µM	45.3 µM	> 100 µM	28.1 µM	> 100 µM										
O=C(C/C(=N/O)C(F)(F)F)c1cccs1	> 100 µM	> 100 µM	> 100 µM	> 100 µM	> 100 µM	> 100 µM	> 100 µM	> 100 µM	> 100 µM	> 100 µM										
Cc1cc2c(cc1C)C(=O)C1(C2)Cc2cc3c(cc2C1=O)CCC3 (stereo not given)	> 100 µM	> 100 µM	> 100 µM	> 100 µM	> 100 µM	> 100 µM	> 100 µM	> 100 µM	> 100 µM	> 100 µM										
COc1cc(Cc2cnc(N)nc2N)cc(OC)c1OCCCNc1ccc([N+](=O)[O-])cc1	14.8 µM	28.4 µM	26.5 µM	> 100 µM	35.2 µM	24.3 µM	37.8 µM	29.2 µM	30.4 µM	30.2 µM										
COC(=O)C1CCC(=O)N1C(c1cc(OC)c(OC)c(OC)c1)c1cccc2ccccc12 (stereo not given)	> 100 µM	> 100 µM	> 100 µM	> 100 µM	> 100 µM	> 100 µM	> 100 µM	> 100 µM	> 100 µM	> 100 µM										
O=c1c2cnccc2cc2c3ccccc3ccn12	> 100 µM	> 100 µM	> 100 µM	> 100 µM	> 100 µM	> 100 µM	> 100 µM	> 100 µM	> 100 µM	> 100 µM										
CCN(CC)c1ccc(/C=C2\CCc3ccc([N+](=O)[O-])cc3C2=O)cc1	2.21 µM	> 100 µM	> 100 µM	> 100 µM	> 100 µM	> 100 µM	> 100 µM	> 100 µM	> 100 µM	> 100 µM										
O=C(OC1CN2CCC1CC2)N(c1ccccc1)c1ccccc1 (stereo not given)	> 100 µM	> 100 µM	> 100 µM	> 100 µM	> 100 µM	> 100 µM	> 100 µM	> 100 µM	> 100 µM	> 100 µM										
O=C1CSC(c2ccc([N+](=O)[O-])cc2)N1c1ccc(-c2ccc(-n3c(-c4ccccc4)nc4ccccc4c3=O)cc2)cc1 (stereo not given)	> 100 µM	> 100 µM	> 100 µM	> 100 µM	> 100 µM	87 µM	> 100 µM	> 100 µM	> 100 µM	> 100 µM										
O=C1CC(=O)NC(=NN2C(=O)CSC2C(=O)c2ccco2)N1 (stereo not given)	> 100 µM	> 100 µM	> 100 µM	> 100 µM	> 100 µM	> 100 µM	> 100 µM	> 100 µM	> 100 µM	> 100 µM										
Cc1cc(OCCOCCC(F)(F)P(=O)(O)O)ccc1CCc1cnc2c(N)nc3cc(CCC(=O)O)ccc3c2c1	> 100 µM	> 100 µM	> 100 µM	> 100 µM	> 100 µM	> 100 µM	> 100 µM	> 100 µM	> 100 µM	> 100 µM	> 100 µM	> 100 µM	> 100 µM	26.6 µM	> 100 µM	> 100 µM	> 100 µM	> 100 µM	> 100 µM	> 100 µM

Compound	TGI [1]	TGI [2]	TGI [3]	TGI [4]	TGI [5]	TGI [6]	TGI [7]	TGI [8]	TGI [9]	TGI [10]	GI50 [1]	GI50 [2]	GI50 [3]	GI50 [4]	GI50 [5]	GI50 [6]	GI50 [7]	GI50 [8]	GI50 [9]	GI50 [10]
S=c1nc(N/N=C/c2cccs2)c2cn[nH]c2[nH]1	> 100 µM	> 100 µM	28.3 µM	> 100 µM	14.5 µM	37.2 µM	> 100 µM	77.6 µM	> 100 µM	> 100 µM										
Cc1c(C)c(C)c(-n2c(=O)n(C)c(=O)n2-c2cc(C(C)(C)C)cc(C(C)(C)C)c2O)c(C)c1C	15.9 µM	22.1 µM	16.6 µM	31.9 µM	17.3 µM	> 46.9 µM	24.8 µM	19.6 µM	18.4 µM	25.9 µM										
C=CC(=O)N1C/C(=C\c2ccc([N+](=O)[O-])cc2)C(=O)/C(=C/c2ccc([N+](=O)[O-])cc2)C1	< 0.038 µM	1.05 µM	1.21 µM	0.804 µM	1.72 µM	> 100 µM	0.33 µM	0.978 µM	0.115 µM	2.36 µM										
CC(=O)O[C@H]1C(=O)[C@@]2(C)[C@H]([C@H](OC(=O)c3ccccc3)[C@]3(O)C[C@H](OC(=O)[C@H](O)[C@@H](NC(=O)c4ccccc4)c4cccc(N(C)C)c4)C(C)=C1C3(C)C)[C@]1(OC(C)=O)CO[C@@H]1C[C@@H]2O	> 32.9 µM	29 µM	> 55.2 µM	0.603 µM	> 75 µM	9.71 µM	> 16.4 µM	> 27 µM	> 61.4 µM	1.58 µM										
COC1=C(Cl)C(=O)c2c(O)ccc(O)c2C1=O	11.8 µM	26.1 µM	3.29 µM	4.96 µM	19.3 µM	1.3 µM	2.31 µM	11.9 µM	1.34 µM	6.83 µM										
CCOC1NC(=O)Oc2cc3ccccc3cc21 (stereo not given)	> 100 µM	> 100 µM	> 100 µM	> 100 µM	> 100 µM	> 100 µM	> 100 µM	> 100 µM	> 100 µM	> 100 µM										
Nc1ccc2ccc(N3CCNCC3)nc2n1	> 100 µM	85.2 µM	> 100 µM	> 100 µM	> 100 µM	> 100 µM	> 100 µM	> 100 µM	> 100 µM	> 100 µM										
O=C(O)c1c2c(cc3c1CC1(Cc4cc5c(cc4C1=O)CCC5)C3)CCC2 (stereo not given)	> 100 µM	> 100 µM	> 100 µM	> 100 µM	> 100 µM	> 100 µM	> 100 µM	> 100 µM	> 100 µM	> 100 µM										
Cc1c2oc3c(C)ccc(C(=O)NC4C(=O)NC(C(C)C)C(=O)N5CC(O)CC5C(=O)N(C)CC(=O)N(C)C(C(C)C)C(=O)OC4C)c3nc-2c(C(=O)NC2C(=O)NC(C(C)C)C(=O)N3CC(O)CC3C(=O)N(C)CC(=O)N(C)C(C(C)C)C(=O)OC2C)c(N)c1=O (stereo not given) (I: TV[Hyp][Sar][NMeV] / II: TV[Hyp][Sar][NMeV]; ester I:1-I:C, II:1-II:C; linker I:N-II:N via Actinocin(9to1); configuration not given here)	> 1 µM	> 1 µM	> 1 µM	> 1 µM	> 1 µM	> 1 µM	> 1 µM	> 1 µM	> 1 µM	> 1 µM										
CC(C)(C)NC(=O)/C(=C\Sc1ccccc1)c1ccccc1	> 100 µM	> 100 µM	> 100 µM	> 100 µM	> 100 µM	> 100 µM	> 100 µM	> 100 µM	> 100 µM	> 100 µM										
O=c1[nH]nc(Cc2ccccc2)n1/N=C/c1cccnc1	> 100 µM	> 100 µM	> 100 µM	> 100 µM	> 100 µM	> 100 µM	> 100 µM	> 100 µM	> 100 µM	> 100 µM										
O=C(N/N=C\c1cccc2ccccc12)Nc1cccc2ccccc12	> 100 µM	> 100 µM	> 100 µM	> 100 µM	> 100 µM	13.6 µM	> 100 µM	34.9 µM	72 µM	> 100 µM										
c1ccc(Nc2nn3c(CCCCCCCCc4nnc5sc(Nc6ccccc6)nn45)nnc3s2)cc1	77.5 µM	> 100 µM	85.7 µM	> 100 µM	> 100 µM	38.3 µM	> 100 µM	> 100 µM	> 100 µM	> 100 µM										
C#C[C@@]1(O)CCCC2=CC3(CC[C@]21C)SCCS3	> 100 µM	> 100 µM	> 100 µM	> 100 µM	> 100 µM	> 100 µM	> 100 µM	> 100 µM	> 100 µM	> 100 µM										
O=c1[nH]c2nccn2c2c1SCCN2	> 100 µM	> 100 µM	> 100 µM	> 100 µM	> 100 µM	> 100 µM	> 100 µM	> 100 µM	> 100 µM	> 100 µM										
N/C(=N\Nc1ccc(Cl)cc1)c1cnccn1	> 100 µM	> 100 µM	> 100 µM	> 100 µM	> 100 µM	> 100 µM	> 100 µM	> 100 µM	> 100 µM	> 100 µM										
